Assay results from patent US9765075B2, “Substituted bridged urea analogs as sirtuin modulators” (GLAXOSMITHKLINE LLC, priority 2013, dated 2017).
Read-outs that look alike come from different tables or passages of the source.

Target: T1, SIRT1 (Homo sapiens, UniProt Q96EB6)
T1 sequence (Q96EB6 1-747): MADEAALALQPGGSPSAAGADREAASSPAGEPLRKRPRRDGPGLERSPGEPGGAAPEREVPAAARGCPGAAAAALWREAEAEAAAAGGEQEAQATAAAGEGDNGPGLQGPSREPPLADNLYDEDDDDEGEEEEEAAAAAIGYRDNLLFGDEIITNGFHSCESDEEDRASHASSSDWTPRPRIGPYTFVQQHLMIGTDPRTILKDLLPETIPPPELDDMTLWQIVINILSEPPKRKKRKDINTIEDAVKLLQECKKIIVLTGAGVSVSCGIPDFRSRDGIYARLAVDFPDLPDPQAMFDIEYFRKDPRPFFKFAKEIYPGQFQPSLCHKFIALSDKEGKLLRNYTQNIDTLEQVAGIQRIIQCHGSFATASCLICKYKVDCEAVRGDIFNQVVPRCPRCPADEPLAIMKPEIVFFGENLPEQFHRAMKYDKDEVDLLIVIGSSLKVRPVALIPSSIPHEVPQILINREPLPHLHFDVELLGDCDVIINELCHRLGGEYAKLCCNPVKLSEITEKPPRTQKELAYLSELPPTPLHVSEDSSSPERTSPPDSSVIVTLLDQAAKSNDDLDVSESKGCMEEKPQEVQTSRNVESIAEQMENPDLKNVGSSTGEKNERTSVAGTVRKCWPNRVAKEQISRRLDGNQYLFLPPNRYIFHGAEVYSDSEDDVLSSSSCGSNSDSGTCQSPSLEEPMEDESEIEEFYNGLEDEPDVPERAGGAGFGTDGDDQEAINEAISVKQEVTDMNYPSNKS
Assay: Trp mass spectrometry assay (SIRT1 activation)
Type: biochemical
Conditions: for Emax: percent maximum fold activation of SIRT1, read-out: Tryp % Fold Act
Method in brief: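 N-His-tagged SIRT1 (10 nM), expressed in E. coli, was incubated with 0.5 μM Ac-RHKK(Ac)W-NH2 peptide and 120 μM NAD+ for 25 min at 25 °C in HEPES pH 7.5 with […]. The reaction was stopped with formic acid and O-acetyl-ADP-ribose or deacetylated peptide was quantified by mass spectrometry. Results are given as EC1.5 and percent maximal activation relative to DMSO control.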

[1] = Trp mass spectrometry assay, EC1.5 = concentration giving 150% activation of SIRT1
[2] = concentration of test compound that results in 150% activation of SIRT1, Trp peptide substrate
[3] = Trp mass spectrometry assay, EC1.5 = concentration of test compound that results in 150% activation of SIRT1

[N-]=[N+]=NCc1cc(N=[N+]=[N-])cc(-c2ccc3c(n2)N(C(=O)Nc2ccc(F)cn2)[C@H]2CCN3C2)c1 [Example 806]
Tryp AVG EC1.5 (μM) [1]: A (EC1.5<1 μM) | Emax (Trp mass spectrometry assay): ≥ 150%

O=C(Nc1ccccn1)N1c2nc(-c3cccc(N4CCC(C(F)(F)F)C4)c3)ccc2N2CC[C@H]1C2 (some centres unmarked) [Example 318]
Tryp AVG EC1.5 (μM) [2]: B (EC1.5 1-25 μM) | Emax (Trp peptide substrate): ≥ 150%

CC(C)(C)OC(=O)NCc1ccc(NC(=O)N2c3nc(-c4cccc(C(F)(F)F)c4)ccc3N3CC[C@H]2C3)cc1 [Example 793]
Tryp AVG EC1.5 (μM) [1]: B (EC1.5 1-25 μM) | Emax (Trp mass spectrometry assay): ≥ 150%

O=C(Nc1ccccn1)N1c2nc(-c3cccc(N4CCC(F)(F)C4)c3)ccc2N2CC[C@H]1C2 [Example 254]
Tryp AVG EC1.5 (μM) [2]: A (EC1.5<1 μM) | Emax (Trp peptide substrate): ≥ 150%

COc1cc(NC(=O)N2c3nc(-c4cccc(C(F)(F)F)c4)ccc3N3CCC[C@H]2C3)ncn1 [Example 41]
Emax (Trp mass spectrometry assay): ≥ 150%

O=C(Nc1cncc(F)c1)N1c2nc(-c3cccc(N4CC[C@@H](F)C4)c3)ccc2N2CC[C@H]1C2 [Example 282]
Tryp AVG EC1.5 (μM) [2]: A (EC1.5<1 μM) | Emax (Trp peptide substrate): ≥ 150%

O=C(Nc1ccccn1)N1c2nc(-c3cccc(C(F)(F)F)c3)ccc2N2CC[C@H]1C2 [816 (7)]
Tryp AVG EC1.5 (μM) [1]: A (EC1.5<1 μM) | Emax (Trp mass spectrometry assay): ≥ 150%

O=C1CN2C[C@H]1N(C(=O)Nc1ccccn1)c1nc(-c3cccc(C(F)(F)F)c3)ccc12 [Example 620]
Tryp AVG EC1.5 (μM) [2]: B (EC1.5 1-25 μM) | Emax (Trp peptide substrate): ≥ 150%

O=C(Nc1cccc(-c2cnco2)c1)N1c2nc(-c3cccc(C(F)(F)F)c3)ccc2N2CCC1CC2 [Example 473]
Tryp AVG EC1.5 (μM) [2]: A (EC1.5<1 μM) | Emax (Trp peptide substrate): ≥ 150%

O=C(Nc1cnccn1)N1c2nc(-c3cncc(F)c3)ccc2N2CCC1CC2 [Example 555]
Tryp AVG EC1.5 (μM) [2]: B (EC1.5 1-25 μM) | Emax (Trp peptide substrate): ≥ 150%

COc1nccnc1NC(=O)N1c2nc(-c3ccnc(C)c3)ccc2N2CC[C@H]1C2 [Example 501]
Tryp AVG EC1.5 (μM) [2]: B (EC1.5 1-25 μM) | Emax (Trp peptide substrate): ≥ 150%

COc1cc(NC(=O)N2c3nc(-c4cncc(Cl)c4)ccc3N3CCC2CC3)ncn1 [Example 552]
Tryp AVG EC1.5 (μM) [2]: C (EC1.5>25 μM) | Emax (Trp peptide substrate): < 150%

COc1cc(NC(=O)N2c3nc(-c4cccc(C(F)(F)F)c4)ccc3N3C[C@@H](O)[C@H]2C3)ncn1 [Example 644]
Tryp AVG EC1.5 (μM) [1]: B (EC1.5 1-25 μM) | Emax (Trp mass spectrometry assay): ≥ 150%

O=C(Nc1cccc(-c2cnco2)c1)N1c2nc(-c3cccc(Cl)c3)ccc2N2C[C@@H](O)[C@H]1C2 [Example 683]
Tryp AVG EC1.5 (μM) [1]: A (EC1.5<1 μM) | Emax (Trp mass spectrometry assay): ≥ 150%

O=C(Nc1cccnn1)N1c2nc(-c3cccc(C(F)(F)F)c3)ccc2N2CCC[C@@H]1C2 [Example 196]
Tryp AVG EC1.5 (μM) [3]: B (EC1.5 1-25 μM) | Emax (Trp mass spectrometry assay): ≥ 150%

N#Cc1ccccc1-c1ccc2c(n1)N(C(=O)Nc1ccccn1)[C@H]1CCCN2C1 [Example 449]
Tryp AVG EC1.5 (μM) [2]: B (EC1.5 1-25 μM) | Emax (Trp peptide substrate): ≥ 150%

O=C(Nc1ccncn1)N1c2nc(-c3cncc(C(F)(F)F)c3)ccc2N2C[C@@H](O)[C@H]1C2 [Example 700]
Tryp AVG EC1.5 (μM) [1]: B (EC1.5 1-25 μM) | Emax (Trp mass spectrometry assay): ≥ 150%

CS(=O)(=O)c1cncc(-c2ccc3c(n2)N(C(=O)Nc2cccnn2)[C@H]2CCCN3C2)c1 [Example 380]
Tryp AVG EC1.5 (μM) [2]: A (EC1.5<1 μM) | Emax (Trp peptide substrate): ≥ 150%

Cc1ccc(-c2ccc3c(n2)N(C(=O)Nc2nc(C)c(C)s2)[C@H]2CCCN3C2)cn1 [Example 506]
Tryp AVG EC1.5 (μM) [2]: A (EC1.5<1 μM) | Emax (Trp peptide substrate): ≥ 150%

Cn1cc(NC(=O)N2c3nc(-c4cccc(C#N)c4)ccc3N3CC[C@H]2C3)cn1 [Example 186]
Tryp AVG EC1.5 (μM) [3]: B (EC1.5 1-25 μM) | Emax (Trp mass spectrometry assay): ≥ 150%

COc1cc(NC(=O)N2c3nc(-c4cccc(N5CC[C@H](F)C5)c4)ccc3N3CC[C@H]2C3)ncn1 [Example 255]
Tryp AVG EC1.5 (μM) [2]: B (EC1.5 1-25 μM) | Emax (Trp peptide substrate): ≥ 150%

COc1cc(-c2cccc(C(F)(F)F)c2)nc2c1N1CC[C@@H](C1)N2C(=O)Nc1ccccn1 [Example 159]
Tryp AVG EC1.5 (μM) [3]: A (EC1.5<1 μM) | Emax (Trp mass spectrometry assay): ≥ 150%

COc1cc(NC(=O)N2c3nc(-c4ccccc4C#N)ccc3N3CCC[C@H]2C3)ncn1 [Example 440]
Tryp AVG EC1.5 (μM) [2]: C (EC1.5>25 μM) | Emax (Trp peptide substrate): < 150%

O=C(Nc1ccc(F)cn1)N1c2nc(-c3cccc(N4CCC(F)(F)C4)c3)ccc2N2CC[C@H]1C2 [Example 257]
Tryp AVG EC1.5 (μM) [2]: B (EC1.5 1-25 μM) | Emax (Trp peptide substrate): ≥ 150%

O=C(Nc1cc(-c2cnco2)ccn1)N1c2nc(-c3cccc(C(F)(F)F)c3)ccc2N2CCC1CC2 [Example 595]
Tryp AVG EC1.5 (μM) [2]: A (EC1.5<1 μM) | Emax (Trp peptide substrate): ≥ 150%

O=C(Nc1ccccn1)N1c2nc(-c3ccc4nonc4c3)ccc2N2CC[C@H]1C2 [Example 372]
Tryp AVG EC1.5 (μM) [2]: B (EC1.5 1-25 μM) | Emax (Trp peptide substrate): ≥ 150%

O=C(Nc1cccc(-c2cnco2)n1)N1c2nc(-c3cccc(C(F)(F)F)c3)ccc2N2C[C@@H](O)[C@H]1C2 [Example 698]
Tryp AVG EC1.5 (μM) [1]: A (EC1.5<1 μM) | Emax (Trp mass spectrometry assay): ≥ 150%

O=C(Nc1ccnc(F)c1)N1c2nc(C3CCCC(C(F)(F)F)C3)ccc2N2CC[C@H]1C2 (some centres unmarked) [Example 154]
Tryp AVG EC1.5 (μM) [3]: B (EC1.5 1-25 μM) | Emax (Trp mass spectrometry assay): ≥ 150%

O=C(Nc1cccnc1)N1c2nc(C3CCCC(C(F)(F)F)C3)ccc2N2CC[C@H]1C2 (some centres unmarked) [Example 99]
Tryp AVG EC1.5 (μM) [3]: A (EC1.5<1 μM) | Emax (Trp mass spectrometry assay): ≥ 150%

CC(C)(C)OC(=O)NCC#Cc1ccc(NC(=O)N2c3nc(-c4cccc(C(F)(F)F)c4)ccc3N3CCC[C@H]2C3)cc1-c1cnco1 [Example 753]
Tryp AVG EC1.5 (μM) [1]: A (EC1.5<1 μM) | Emax (Trp mass spectrometry assay): ≥ 150%

O=C(Nc1cnccn1)N1c2nc(-c3ccc(Cl)c(Cl)c3)ccc2N2CC[C@H]1C2 [Example 461]
Tryp AVG EC1.5 (μM) [2]: A (EC1.5<1 μM) | Emax (Trp peptide substrate): ≥ 150%

O=C(Nc1ccccn1)N1c2cc(-c3cccc(C(F)(F)F)c3)ccc2N2CC[C@H]1C2 [Example 785]
Tryp AVG EC1.5 (μM) [1]: C (EC1.5>25 μM) | Emax (Trp mass spectrometry assay): < 150%

O=C(NCCCc1cccnc1)N1c2nc(-c3cccc(C(F)(F)F)c3)ccc2N2CC[C@H]1C2 [Example 674]
Tryp AVG EC1.5 (μM) [1]: B (EC1.5 1-25 μM) | Emax (Trp mass spectrometry assay): ≥ 150%

NCc1ccc(NC(=O)N2c3nc(-c4cccc(C(F)(F)F)c4)ccc3N3CCC[C@H]2C3)cc1 [444 (4)]
Tryp AVG EC1.5 (μM) [2]: A (EC1.5<1 μM) | Emax (Trp peptide substrate): ≥ 150%

Cc1cncc(NC(=O)N2c3nc(N4CCCC(C(F)(F)F)C4)ccc3N3CC[C@H]2C3)c1 (some centres unmarked) [Example 230]
Tryp AVG EC1.5 (μM) [2]: A (EC1.5<1 μM) | Emax (Trp peptide substrate): ≥ 150%

Cc1cnccc1NC(=O)N1c2nc(-c3cccc(C(F)(F)F)c3)ccc2N2CCC[C@H]1C2 [Example 37]
Emax (Trp mass spectrometry assay): ≥ 150%

N#Cc1cc(-c2ccc3c(n2)N(C(=O)Nc2cnccn2)[C@H]2CCN3C2)ccc1F [Example 419]
Tryp AVG EC1.5 (μM) [2]: A (EC1.5<1 μM) | Emax (Trp peptide substrate): ≥ 150%

CC(=O)c1cccc(NC(=O)N2c3nc(-c4cccc(C(F)(F)F)c4)ccc3N3CC[C@H]2C3)c1 [Example 671]
Tryp AVG EC1.5 (μM) [1]: A (EC1.5<1 μM) | Emax (Trp mass spectrometry assay): ≥ 150%

CN(C)[C@H]1CCN(c2ccc3c(n2)N(C(=O)Nc2cncc(F)c2)[C@H]2CCN3C2)C1 [Example 244]
Tryp AVG EC1.5 (μM) [2]: B (EC1.5 1-25 μM) | Emax (Trp peptide substrate): ≥ 150%

O=C(Nc1ccc(F)cn1)N1c2nc(-c3cccc(C(F)(F)F)c3)ccc2N2CC[C@H]1C2 [Example 46]
Emax (Trp mass spectrometry assay): ≥ 150%

O=C(Nc1cncc(F)c1)N1c2nc(Cl)ccc2N2CC[C@H]1C2 [Example 259]
Tryp AVG EC1.5 (μM) [2]: B (EC1.5 1-25 μM) | Emax (Trp peptide substrate): ≥ 150%

Cc1noc(C)c1-c1cccc(NC(=O)N2c3nc(-c4cccc(C(F)(F)F)c4)ccc3N3CC[C@H]2C3)n1 [Example 657]
Tryp AVG EC1.5 (μM) [1]: A (EC1.5<1 μM) | Emax (Trp mass spectrometry assay): ≥ 150%

O=C(Nc1cc(OCC(O)CO)ccn1)N1c2nc(-c3cccc(C(F)(F)F)c3)ccc2N2CC[C@H]1C2 (some centres unmarked) [Example 53]
Emax (Trp mass spectrometry assay): ≥ 150%

O=C(Nc1ccncn1)N1c2nc(-c3cccc(C(F)(F)F)c3)ccc2N2C[C@@H](O)[C@H]1C2 [Example 669]
Tryp AVG EC1.5 (μM) [1]: B (EC1.5 1-25 μM) | Emax (Trp mass spectrometry assay): ≥ 150%

CC(C)(C)OC(=O)NCCCc1cc(NC(=O)N2c3nc(-c4cccc(C(F)(F)F)c4)ccc3N3CC[C@H]2C3)cc(-c2cnco2)c1 [Example 759]
Tryp AVG EC1.5 (μM) [1]: B (EC1.5 1-25 μM) | Emax (Trp mass spectrometry assay): ≥ 150%

NCc1cccc(NC(=O)N2c3nc(-c4cccc(C(F)(F)F)c4)ccc3N3CC[C@H]2C3)c1 [Example 755]
Tryp AVG EC1.5 (μM) [1]: B (EC1.5 1-25 μM) | Emax (Trp mass spectrometry assay): ≥ 150%

O=C(Nc1cc[nH]c(=O)n1)N1c2nc(-c3cccc(C(F)(F)F)c3)ccc2N2CC[C@H]1C2 [Example 82]
Emax (Trp mass spectrometry assay): ≥ 150%
